Values joined by “and” are separate entries in the source; they are usually repeats but may differ in a detail not shown here. Equal values may be shown once. Inconclusive results and toxic doses are left out.
Test system: L1210 leukemia ip in BDF1 mice, survival T/C
Assay: NCI In Vivo Anticancer Drug Screen. Data for tumor model L1210 Leukemia (intraperitoneal) in B6D2F1 (BDF1) mice
Conditions: endpoint: mean survival time, higher = longer survival
In short: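 Survival endpoint. Drug-treated group vs vehicle group, expressed as T divided by C. Tumor passaged by transplantation.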

[1] = dose: 50.0 mg/kg/injection, schedule: Q01DX009 (ip), vehicle: saline with Tween-80
[2] = dose: 100.0 mg/kg/injection, schedule: Q01DX009 (ip), vehicle: saline with Tween-80
[3] = dose: 100.0 mg/kg/injection, schedule: Q01DX009 (ip), vehicle: Klucel (hydroxypropylcellulose) (HPC)
[4] = dose: 100.0 mg/kg/injection, schedule: Q04DX003 (ip), vehicle: Klucel (hydroxypropylcellulose) (HPC)
[5] = dose: 200.0 mg/kg/injection, schedule: Q01DX009 (ip), vehicle: Klucel (hydroxypropylcellulose) (HPC)
[6] = dose: 200.0 mg/kg/injection, schedule: Q04DX003 (ip), vehicle: Klucel (hydroxypropylcellulose) (HPC)
[7] = dose: 400.0 mg/kg/injection, schedule: Q01DX009 (ip), vehicle: Klucel (hydroxypropylcellulose) (HPC)
[8] = dose: 400.0 mg/kg/injection, schedule: Q04DX003 (ip), vehicle: Klucel (hydroxypropylcellulose) (HPC)
[9] = dose: 100.0 mg/kg/injection, schedule: Q01DX001 (ip), vehicle: saline
[10] = dose: 200.0 mg/kg/injection, schedule: Q01DX001 (ip), vehicle: saline
[11] = dose: 400.0 mg/kg/injection, schedule: Q01DX001 (ip), vehicle: saline
[12] = dose: 100.0 mg/kg/injection, schedule: Q04DX003 (ip), vehicle: saline with Tween-80
[13] = dose: 200.0 mg/kg/injection, schedule: Q04DX003 (ip), vehicle: saline with Tween-80
[14] = dose: 25.0 mg/kg/injection, schedule: Q01DX009 (ip), vehicle: saline
[15] = dose: 100.0 mg/kg/injection, schedule: Q01DX001 (ip), vehicle: Klucel (hydroxypropylcellulose) (HPC)
[16] = dose: 200.0 mg/kg/injection, schedule: Q01DX001 (ip), vehicle: Klucel (hydroxypropylcellulose) (HPC)
[17] = dose: 400.0 mg/kg/injection, schedule: Q01DX001 (ip), vehicle: Klucel (hydroxypropylcellulose) (HPC)
[18] = dose: 25.0 mg/kg/injection, schedule: Q04DX003 (ip), vehicle: saline
[19] = dose: 50.0 mg/kg/injection, schedule: Q04DX003 (ip), vehicle: saline
[20] = dose: 100.0 mg/kg/injection, schedule: Q04DX003 (ip), vehicle: saline
[21] = dose: 75.0 mg/kg/injection, schedule: Q01DX001 (ip), vehicle: carboxymethylcellulose (CMC)
[22] = dose: 150.0 mg/kg/injection, schedule: Q01DX001 (ip), vehicle: carboxymethylcellulose (CMC)
[23] = dose: 400.0 mg/kg/injection, schedule: Q04DX003 (ip), vehicle: saline with Tween-80
[24] = dose: 100.0 mg/kg/injection, schedule: Q01DX001 (ip), vehicle: saline with Tween-80
[25] = dose: 200.0 mg/kg/injection, schedule: Q01DX001 (ip), vehicle: saline with Tween-80
[26] = dose: 400.0 mg/kg/injection, schedule: Q01DX001 (ip), vehicle: saline with Tween-80
[27] = dose: 200.0 mg/kg/injection, schedule: Q01DX009 (ip), vehicle: saline with Tween-80

SMILES: O=C(Cc1ccccc1)OCC1CC2C=CC1C2 (stereo not drawn)
- T/C (dose: 222.0 mg/kg/injection, schedule: Q01DX Z (ip), vehicle: methylcellulose (MC)): 102 % of control
- T/C (dose: 333.0 mg/kg/injection, schedule: Q01DX Z (ip), vehicle: methylcellulose (MC)): 93 % of control
- T/C (dose: 500.0 mg/kg/injection, schedule: Q01DX Z (ip), vehicle: methylcellulose (MC)): 93 % of control

SMILES: CCCCCC(CN(C)C)C(=O)/C=C\c1ccc(Cl)cc1Cl (stereo not drawn)
- T/C (dose: 12.5 mg/kg/injection, schedule: Q04DX003 (ip), vehicle: alcohol): 87 % of control
- T/C (dose: 25.0 mg/kg/injection, schedule: Q04DX003 (ip), vehicle: alcohol): 97 % of control
- T/C (dose: 50.0 mg/kg/injection, schedule: Q04DX003 (ip), vehicle: alcohol): 97 % of control

SMILES: COc1ccc(OC)c(NC(=O)NNC(=O)c2ccc(Cl)cc2)c1
- T/C (dose: 25.0 mg/kg/injection, schedule: Q01DX009 (ip), vehicle: saline with Tween-80): 95 % of control
- T/C [1]: 94 % of control
- T/C [2]: 92 % of control

SMILES: CC(=O)Nc1ccccc1F
- T/C [3]: 105 % of control
- T/C [4]: 101 % of control
- T/C [5]: 105 % of control
- T/C [6]: 102 % of control
- T/C [7]: 103 % of control
- T/C [8]: 95 % of control

SMILES: Nc1ccc(N=Nc2ccc(S(=O)(=O)Nc3ccccn3)cc2)c(N)n1
- T/C [9]: 96 % of control
- T/C [10]: 102 % of control
- T/C [11]: 105 % of control

SMILES: CCC(C)C(CN)(CCCCN1CCOCC1)c1cccc2ccccc12 (stereo not drawn)
- T/C [12]: 98 % of control
- T/C [13]: 93 % of control

SMILES: COc1cc(NC(=O)Nc2ccc(Cl)cc2[N+](=O)[O-])c(OC)cc1Cl
- T/C [3]: 94 % of control
- T/C [5]: 94 % of control
- T/C [7]: 89 % of control

SMILES: CCOc1cc(N2CCOCC2)c(OCC)cc1N
- T/C (dose: 6.0 mg/kg/injection, schedule: Q01DX009 (ip), vehicle: saline): 103 % of control
- T/C (dose: 12.0 mg/kg/injection, schedule: Q01DX009 (ip), vehicle: saline): 100 % of control
- T/C (dose: 12.0 mg/kg/injection, schedule: Q04DX003 (ip), vehicle: other): 100 % of control
- T/C [14]: 94 % of control
- T/C (dose: 25.0 mg/kg/injection, schedule: Q04DX003 (ip), vehicle: other): 95 % of control

SMILES: CCCCCCCCOc1ccc(C(c2ccccc2)(c2ccccc2)c2ccccc2)cc1
- T/C [15]: 90 % of control
- T/C [16]: 89 % of control
- T/C [17]: 89 % of control

SMILES: CCOC(=O)N/N=C(/C)c1cccc([N+](=O)[O-])c1
- T/C (dose: 25.0 mg/kg/injection, schedule: Q01DX009 (ip), vehicle: Klucel (hydroxypropylcellulose) (HPC)): 103 % of control
- T/C (dose: 50.0 mg/kg/injection, schedule: Q01DX009 (ip), vehicle: Klucel (hydroxypropylcellulose) (HPC)): 103 % of control
- T/C [3]: 100 % of control and 111 % of control

SMILES: C[N+](C)(C)CCCCCC[N+](C)(C)C
- T/C [14]: 102 % of control
- T/C [18]: 108 % of control
- T/C (dose: 50.0 mg/kg/injection, schedule: Q01DX009 (ip), vehicle: saline): 104 % of control
- T/C [19]: 97 % of control
- T/C (dose: 100.0 mg/kg/injection, schedule: Q01DX009 (ip), vehicle: saline): 96 % of control
- T/C [20]: 94 % of control and 89 % of control

SMILES: CCCCc1ccc(NC(=O)N(CCCl)N=O)cc1
- T/C (dose: 6.0 mg/kg/injection, schedule: Q01DX009 (ip), vehicle: carboxymethylcellulose (CMC)): 156 % of control
- T/C (dose: 33.0 mg/kg/injection, schedule: Q01DX009 (ip), vehicle: carboxymethylcellulose (CMC)): 175 % of control
- T/C (dose: 37.5 mg/kg/injection, schedule: Q01DX001 (ip), vehicle: carboxymethylcellulose (CMC)): 163 % of control
- T/C (dose: 50.0 mg/kg/injection, schedule: Q01DX009 (ip), vehicle: carboxymethylcellulose (CMC)): 180 % of control
- T/C [21]: 194 % of control
- T/C (dose: 75.0 mg/kg/injection, schedule: Q01DX009 (ip), vehicle: carboxymethylcellulose (CMC)): 106 % of control
- T/C (dose: 75.0 mg/kg/injection, schedule: Q04DX003 (ip), vehicle: saline with Tween-80): 120 % of control
- T/C (dose: 112.5 mg/kg/injection, schedule: Q01DX009 (ip), vehicle: carboxymethylcellulose (CMC)): 87 % of control
- T/C [22]: 260 % of control

SMILES: Cc1ccc(C(=O)Nc2ccc3c(c2)Cc2ccccc2-3)cc1
- T/C (dose: 50.0 mg/kg/injection, schedule: Q01DX001 (ip), vehicle: saline): 101 % of control
- T/C (dose: 50.0 mg/kg/injection, schedule: Q04DX003 (ip), vehicle: Klucel (hydroxypropylcellulose) (HPC)): 104 % of control
- T/C [9]: 101 % of control
- T/C [4]: 100 % of control
- T/C [10]: 101 % of control
- T/C [6]: 94 % of control
- T/C [11]: 95 % of control

SMILES: Cc1ccc(Cl)c(NC(=O)c2ccc(C(=O)Nc3cc(C)ccc3Cl)cc2)c1
- T/C [3]: 87 % of control
- T/C [5]: 88 % of control
- T/C [7]: 91 % of control

SMILES: CCOC(=O)/C(C#N)=C\c1cc(OC)ccc1OC
- T/C [2]: 101 % of control
- T/C [12]: 96 % of control
- T/C [13]: 94 % of control
- T/C [23]: 93 % of control

SMILES: CC1(C)c2ccccc2C(=O)/C(=C/c2ccccc2)C1NC1CCCCC1 (stereo not drawn)
- T/C [15]: 95 % of control
- T/C [3]: 102 % of control
- T/C [16]: 93 % of control
- T/C [5]: 96 % of control
- T/C [17]: 92 % of control
- T/C [7]: 106 % of control

SMILES: CC(=O)NC1C(OCc2ccccc2)OC(CO)C(O)C1OCc1ccccc1 (stereo not drawn)
- T/C [24]: 100 % of control
- T/C [25]: 107 % of control
- T/C [26]: 96 % of control

SMILES: COC(=O)c1sc2ccccc2c1CC#N
- T/C (dose: 100.0 mg/kg/injection, schedule: Q01DX001 (ip), vehicle: carboxymethylcellulose (CMC)): 103 % of control
- T/C (dose: 200.0 mg/kg/injection, schedule: Q01DX001 (ip), vehicle: carboxymethylcellulose (CMC)): 86 % of control
- T/C (dose: 400.0 mg/kg/injection, schedule: Q01DX001 (ip), vehicle: carboxymethylcellulose (CMC)): 103 % of control

SMILES: O=C(Nc1ccc(S(=O)(=O)Nc2ccc(N=Nc3ccccc3)cc2)cc1)C(SC1=NC=NC2=NC=NC21)SC1=NC=NC2=NC=NC21 (stereo not drawn)
- T/C (dose: 75.0 mg/kg/injection, schedule: Q04DX003 (ip), vehicle: saline): 104 % of control
- T/C (dose: 150.0 mg/kg/injection, schedule: Q04DX003 (ip), vehicle: saline): 96 % of control
- T/C (dose: 300.0 mg/kg/injection, schedule: Q04DX003 (ip), vehicle: saline): 109 % of control

SMILES: O=C(CCC1c2ccccc2C(=O)c2ccccc21)c1ccccc1
- T/C [1]: 108 % of control
- T/C [2]: 97 % of control
- T/C [27]: 101 % of control

SMILES: Nc1ccc2[nH]c(=S)sc2c1
- T/C [2]: 104 % of control
- T/C [27]: 104 % of control
- T/C (dose: 400.0 mg/kg/injection, schedule: Q01DX009 (ip), vehicle: saline with Tween-80): 108 % of control

SMILES: CCCCC1C2CCCCC2CC2CCCCC21 (stereo not drawn)
- T/C [24]: 98 % of control
- T/C [25]: 101 % of control
- T/C [26]: 98 % of control

SMILES: COc1ccc(COC(=O)Oc2ccc(C#N)cc2)cc1OC
- T/C [12]: 106 % of control
- T/C [13]: 96 % of control
- T/C [23]: 93 % of control

SMILES: CC(C)/C=N/NP(Br)(c1ccccc1)(c1ccccc1)c1ccccc1
- T/C [21]: 93 % of control
- T/C [22]: 95 % of control
- T/C (dose: 300.0 mg/kg/injection, schedule: Q01DX001 (ip), vehicle: carboxymethylcellulose (CMC)): 102 % of control

SMILES: CCN(CC)CCCC(C)Nc1cc(N)nc2nccnc12 (stereo not drawn)
- T/C [18]: 102 % of control
- T/C [19]: 111 % of control
- T/C [20]: 107 % of control

SMILES: O=S(=O)(Cc1cccc(C(F)(F)F)c1)c1ccccc1-n1cccc1
- T/C [6]: 90 % of control
- T/C [8]: 98 % of control

Source: PubChem BioAssay AID248 (DTP/NCI, 2004)
